Measurements taken from patent US20040234476A1, “Cosmetic preparation with anti-wrinkle action” (priority 2001, published 2004).
Where no end group is shown, it is not given here. The star is where a group is joined. Palmitoyl = CCCCCCCCCCCCCCCC(=O)*

System: cells
Assay: in vitro studies of collagen and glycosaminoglycan synthesis by cells
Assay type: cell-based

palmitoyl-Lys-Thr-Thr-Lys-Ser (Palmitoyl-KTTKS) [lipopeptide]
synthesis of collagen and glycosaminoglycans by cells: induces cells to synthesize collagen and glycosaminoglycans
